What is called pIC50 is −log10 of the IC50, conventionally taken in molar units. The term pKi denotes −log10 of the Ki, conventionally taken in molar units.

We go through 18 compounds from patent US8710233B2 (Gruenenthal GmbH, priority 2005, dated 2014).

What all share (type): cell-based
One experiment concerns the target VR1/TRPV1 receptor (Homo sapiens, UniProt Q8NER1). Nature of the experiment: IC50 (human) after pH stimulus.
In experiment [1] the target is T1, vanilloid receptor 1 (VR1/TRPV1) of the rat species (Rattus norvegicus, UniProt O35433).
T1 construct: The spinal column is removed from decapitated rats; from tissue; host or cells: primary cells dissociated from rat dorsal root ganglia
T1 sequence (O35433 whole entry): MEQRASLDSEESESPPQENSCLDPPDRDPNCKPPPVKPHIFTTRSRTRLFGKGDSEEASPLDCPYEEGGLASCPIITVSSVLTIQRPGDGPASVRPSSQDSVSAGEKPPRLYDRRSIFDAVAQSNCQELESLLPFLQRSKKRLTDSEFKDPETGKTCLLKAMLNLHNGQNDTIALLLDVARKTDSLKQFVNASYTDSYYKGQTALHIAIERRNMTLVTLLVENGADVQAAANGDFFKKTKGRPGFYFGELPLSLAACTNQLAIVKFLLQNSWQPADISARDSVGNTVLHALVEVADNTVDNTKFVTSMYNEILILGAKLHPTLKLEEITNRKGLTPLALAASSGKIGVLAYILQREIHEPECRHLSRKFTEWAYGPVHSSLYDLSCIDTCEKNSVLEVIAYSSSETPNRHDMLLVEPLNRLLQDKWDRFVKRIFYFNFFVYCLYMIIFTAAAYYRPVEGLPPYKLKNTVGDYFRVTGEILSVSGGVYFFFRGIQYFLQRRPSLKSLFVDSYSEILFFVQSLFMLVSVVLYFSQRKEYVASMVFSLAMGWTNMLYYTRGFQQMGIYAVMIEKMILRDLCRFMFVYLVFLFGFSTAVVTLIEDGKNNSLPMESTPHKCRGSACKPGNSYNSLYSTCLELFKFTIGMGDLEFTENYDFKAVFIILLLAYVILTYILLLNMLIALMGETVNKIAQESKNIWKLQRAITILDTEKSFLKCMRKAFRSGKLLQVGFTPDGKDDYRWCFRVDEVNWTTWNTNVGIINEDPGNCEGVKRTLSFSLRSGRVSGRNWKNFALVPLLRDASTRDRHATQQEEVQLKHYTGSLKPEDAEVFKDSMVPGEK
Nature of the experiment: FLIPR Ca2+ influx assay on rat dorsal root ganglia cells (pharmacological method I). From the text:
I. Functional Investigation of the Vanilloid Receptor 1 (VR1/TRPV1 Receptor)
The agonistic or antagonistic action of the substances to be investigated on the vanilloid receptor 1 (VR1/TRPV1) of the rat species may be determined by the following assay. According to this assay, the influx of Ca^2+ through the receptor channel is quantified with the assistance of a Ca^2+-sensitive dye (type Fluo-4, Molecular Probes Europe BV, Leiden, Netherlands) in a Fluorescent Imaging Plate Reader (FLIPR, Molecular Devices, Sunnyvale, USA).
The spinal column is removed from decapitated rats and is placed directly in cold, i.e. located in an ice bath, HBSS buffer (Hank's buffered saline solution, Gibco Invitrogen GmbH, Karlsruhe, Germany) combined with 1 vol. % (percent by volume) of an AA solution (antibiotic/antimycotic solution, PAA, Pasching, Austria). The spinal column is cut open longitudinally and removed together with fasciae from the spinal canal. The dorsal root ganglia (DRGs) are then removed and in turn stored in cold HBSS buffer combined with 1 vol. % of an AA solution. The DRGs, from which all traces of blood and spinal nerves have been removed, are in each case transferred into 500 μL of cold collagenase type 2 (PAA, Pasching, Austria) and incubated for 35 minutes at 37° C. […] Once incubation is complete, the enzyme solution is carefully removed by pipette and the DRGs, which are left behind, are in each case combined with 500 μL of complete medium.
The DRGs are in each case repeatedly suspended, drawn by means of a syringe through […], no. 12 and no. 16 cannulas and transferred into 50 mL Falcon microtubes and each tube is made up to 15 mL with complete medium. The contents of each Falcon microtube are in each case filtered through a 70 μm Falcon filter insert and centrifuged for 10 minutes at 1200 revolutions and room temperature. The resultant pellet is in each case resuspended in 250 μL of complete medium and the cell count determined.
The number of cells in the suspension is adjusted to 3×10^5 per mL and a 150 μL portion of this suspension is in each case placed in a well of the cell culture plate which has been coated as described above.
The cells are then loaded with 2 μM Fluo-4 and 0.01 vol. % Pluronic F127 (Molecular Probes Europe BV, Leiden, Netherlands) in HBSS buffer (Hank's buffered saline solution, Gibco Invitrogen GmbH, Karlsruhe, Germany) for 30 min at 37° C., washed 3× with HBSS buffer and, after a further 15 minutes' incubation at room temperature, used for Ca^2+ measurement in the FLIPR assay. […] Quantification proceeds by measuring the highest fluorescence intensity (FC, fluorescence counts) over time.
The FLIPR protocol comprises 2 additions of substance. The compounds to be tested (10 μM) are firstly pipetted onto the cells and Ca^2+ influx is compared with the control (capsaicin 10 μM). This provides the percentage activation relative to the Ca^2+ signal after addition of 10 μM of capsaicin (CP). After 5 minutes' incubation, 100 nM of capsaicin are added and the influx of Ca^2+ is again determined.
Desensitising agonists and antagonists result in suppression of Ca^2+ influx. The percentage inhibition in comparison with the maximum achievable inhibition with 10 μM capsaicin is calculated.
Triplicate determinations (n═3) are performed and these are repeated in at least 3 independent experiments […].

Another experiment addresses T2, vanilloid receptor (VR1) (Homo sapiens, UniProt Q8NER1).
T2 construct: expressed in transfected cells; host or cells: CHO K1 cells (ECACC), stably transfected
Nature of the experiment: FLIPR Ca2+ influx assay on CHO K1 cells transfected with the VR1 gene (pharmacological method II).

[2] abbreviates: Table 2, displacement of capsaicin (100 nM), Cheng-Prusoff, read-out: Ki (rat).
[3] abbreviates: Table 2, displacement of capsaicin (100 nM), Cheng-Prusoff, read-out: Ki (human).
Setting [4] is: table 4, capsaicin, read-out: Ki (rat) Cap.
[5] abbreviates: table 4, capsaicin, read-out: Ki (human) Cap.

pIC50, pKi: −log10 of the molar value. Read-outs that look alike come from different tables or passages of the source.

VR1/TRPV1 receptor, sequence (Q8NER1 whole entry): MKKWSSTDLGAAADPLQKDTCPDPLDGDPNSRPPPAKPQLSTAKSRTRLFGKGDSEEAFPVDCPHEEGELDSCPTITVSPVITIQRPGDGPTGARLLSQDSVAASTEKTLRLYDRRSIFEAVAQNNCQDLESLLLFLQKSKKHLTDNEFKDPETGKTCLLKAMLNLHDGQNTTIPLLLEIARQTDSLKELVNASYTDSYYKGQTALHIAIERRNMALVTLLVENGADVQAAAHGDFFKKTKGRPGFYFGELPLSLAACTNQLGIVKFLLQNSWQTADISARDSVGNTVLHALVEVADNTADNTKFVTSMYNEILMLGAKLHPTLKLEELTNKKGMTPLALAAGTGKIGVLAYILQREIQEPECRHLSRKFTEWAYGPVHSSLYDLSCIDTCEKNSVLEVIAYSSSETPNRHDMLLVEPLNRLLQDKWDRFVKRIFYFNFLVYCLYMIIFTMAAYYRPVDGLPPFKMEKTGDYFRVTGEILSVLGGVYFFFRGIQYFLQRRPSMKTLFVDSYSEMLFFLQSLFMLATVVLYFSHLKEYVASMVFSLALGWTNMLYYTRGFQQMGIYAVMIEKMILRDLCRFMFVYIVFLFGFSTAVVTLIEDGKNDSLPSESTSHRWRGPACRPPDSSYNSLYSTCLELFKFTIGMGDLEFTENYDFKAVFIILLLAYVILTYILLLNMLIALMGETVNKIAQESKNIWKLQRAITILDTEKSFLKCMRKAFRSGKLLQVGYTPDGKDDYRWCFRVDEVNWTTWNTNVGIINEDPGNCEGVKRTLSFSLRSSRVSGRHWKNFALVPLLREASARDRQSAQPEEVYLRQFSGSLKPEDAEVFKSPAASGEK
T2 sequence (Q8NER1 whole entry): as above

On VR1/TRPV1 receptor (Table 2), `CC(C(=O)NCc1ccc(C(F)(F)F)nc1Br)c1ccc(NS(C)(=O)=O)c(F)c1` (centres unmarked) [Example 6, N-((2-bromo-6-(trifluoromethyl)pyridin-3-yl)methyl)-2-(3-fluoro-4-(methylsulfonamido)phenyl)propanamide] gave a pIC50 of 5.58. For the same compound, the pKi in experiment [1] (setting [2]) was 7.02; on vanilloid receptor (VR1) (setting [3]), 6.77.
On to `CC(C(=O)NCc1ccc(C(F)(F)F)nc1N1CCCCC1)c1ccc(NS(C)(=O)=O)c(Cl)c1` (centres unmarked) [Example 64, 2-(3-chloro-4-(methylsulfonamido)phenyl)-N-((2-(piperidin-1-yl)-6-(trifluoromethyl)pyridin-3-yl)methyl)propanamide], for which the pKi is 8.20 in experiment [1] (setting [2]) and 8.64 on vanilloid receptor (VR1) (setting [3]).
`CCOC1CCN(c2nc(C(F)(F)F)ccc2CNC(=O)C(C)c2ccc(NS(C)(=O)=O)c(F)c2)CC1` (centres unmarked) [Example 228, N-(4-ethoxy-6′-trifluoromethyl-3,4,5,6-tetrahydro-2H-[1,2′]bipyridinyl-3′-ylmethyl)-2-(3-fluoro-4-methylsulfonamido-phenyl)-propionamide] had a pIC50 against VR1/TRPV1 receptor (table 4) of 6.21. Besides, the pKi in experiment [1] (setting [4]) is 8.60; at vanilloid receptor (VR1) (setting [5]), 8.89.
For the compound `CCS(=O)(=O)Nc1ccc(C(C)C(=O)NCc2ccc(C(F)(F)F)nc2N2CCC(C)CC2)cc1F` (centres unmarked) [Example 287, 2-(4-ethanesulfonylamino-3-fluoro-phenyl)-N-(4-methyl-6′-trifluoromethyl-3,4,5,6-tetrahydro-2H-[1,2′]bipyridinyl-3′-ylmethyl)-propionamide], at VR1/TRPV1 receptor (table 4), the negative logarithm of the IC50 (pIC50) was 6.72. Moreover, the pKi in experiment [1] (setting [4]) is 8.46; on vanilloid receptor (VR1) (setting [5]) it was 8.36.
For `CC(C(=O)NCc1ccc(C(F)(F)F)nc1OC1CCC(C(C)(C)C)CC1)c1ccc(NS(C)(=O)=O)c(F)c1` (centres unmarked) [Example 170, N-[2-(4-tert-butyl-cyclohexyloxy)-6-trifluoromethyl-pyridin-3-ylmethyl]-2-(3-fluoro-4-methylsulfonamido-phenyl)-propionamide], the pIC50 on VR1/TRPV1 receptor (table 4) is 6.62. For the same compound, the results for the pKi (in experiment [1] (setting [4]); at vanilloid receptor (VR1) (setting [5])) were 8.29 and 8.11, respectively.
The matching figures for `CC(C(=O)NCc1ccc(C(F)(F)Cl)nc1OCc1ccccc1)c1ccc(NS(C)(=O)=O)c(F)c1` (centres unmarked) [Example 169, N-[2-benzyloxy-6-(chloro-difluoro-methyl)-pyridin-3-ylmethyl]-2-(3-fluoro-4-methylsulfonamido-phenyl)-propionamide]: 7.39, 9.22 and 9.05.
The matching figures for `COc1ccc(-c2nc(C(F)(F)F)ccc2CNC(=O)C(C)c2ccc(NS(C)(=O)=O)c(F)c2)cc1` (centres unmarked) [Example 151, 2-(3-fluoro-4-methylsulfonamido-phenyl)-N-[2-(4-methoxy-phenyl)-6-trifluoromethyl-pyridin-3-ylmethyl]-propionamide]: 7.03, 8.85 and 9.00.
`CCCCc1ccc(COc2nc(C(F)(F)F)ccc2CNC(=O)C(C)c2ccc(NS(C)(=O)=O)c(F)c2)cc1` (centres unmarked) [Example 243, N-[2-(4-butyl-benzyloxy)-6-trifluoromethyl-pyridin-3-ylmethyl]-2-(3-fluoro-4-methylsulfonamido-phenyl)-propionamide] had a pIC50 against VR1/TRPV1 receptor (table 4) of 6.47. The pKi in experiment [1] (setting [4]) is 8.29; at vanilloid receptor (VR1) (setting [5]) it was 7.80.
The compound `COc1nc(C(F)(F)F)ccc1CNC(=O)C(C)c1ccc(NS(C)(=O)=O)c(F)c1` (centres unmarked) [Example 18, 2-(3-fluoro-4-(methylsulfonamido)phenyl)-N-((2-methoxy-6-(trifluoromethyl)pyridin-3-yl)methyl)propanamide] showed a pIC50 against VR1/TRPV1 receptor (Table 2) of 5.57. Further, the pKi was 7.33 in experiment [1] (Ki (rat), Table 2, displacement of capsaicin (100 nM), Cheng-Prusoff) and 7.16 at vanilloid receptor (VR1) (setting [3]).
As for `CC(C(=O)NCc1ccc(C(F)(F)F)cc1N1CCC(C)(C)CC1)c1ccc(NS(C)(=O)=O)c(F)c1` (centres unmarked) [Example 218, N-[2-(4,4-dimethyl-piperidin-1-yl)-4-trifluoromethyl-benzyl]-2-(3-fluoro-4-methylsulfonamido-phenyl)-propionamide], the negative-log IC50 (pIC50) on VR1/TRPV1 receptor (table 4) is 7.86. The figures for the pKi (in experiment [1] (setting [4]); at vanilloid receptor (VR1) (setting [5])) were 9.40 and 8.89, respectively.
`CC(C(=O)NCc1ccc(C(F)(F)F)nc1N1CCNCC1)c1ccc(NS(C)(=O)=O)c(F)c1` (centres unmarked) [Example 74]: on VR1/TRPV1 receptor (@ 10 μM), the “inhibition in percent, IC50 (human) after pH stimulus” value was found to be 35% @ 10 μM. Moreover, in experiment [1] (@ 10 μM), the “inhibition in percent, Ki (rat) Cap.” value came to 70% @ 10 μM. Further, at vanilloid receptor (VR1) (@ 10 μM), the “inhibition in percent, Ki (human) Cap.” value stood at 71% @ 10 μM.
`CC(C(=O)NCc1ccc(C(F)(F)F)nc1N1CCCCC1)c1ccc(NS(C)(=O)=O)c(Br)c1` (centres unmarked) [Example 67, 2-(3-bromo-4-(methylsulfonamido)phenyl)-N-((2-(piperidin-1-yl)-6-(trifluoromethyl)pyridin-3-yl)methyl)propanamide]: the pKi in experiment [1] (setting [2]) is 8.29; at vanilloid receptor (VR1) (setting [3]), 8.49.
In turn, `CC1CC(C)CN(c2nc(C(F)(F)Cl)ccc2CNC(=O)C(C)c2ccc(NS(C)(=O)=O)c(F)c2)C1` (centres unmarked) [Example 187, N-[6′-(chloro-difluoro-methyl)-3,5-dimethyl-3,4,5,6-tetrahydro-2H-[1,2′]bipyridinyl-3′-ylmethyl]-2-(3-fluoro-4-methylsulfonamido-phenyl)-propionamide] showed a pIC50 at VR1/TRPV1 receptor (table 4) of 7.40. In addition, the pKi in experiment [1] (setting [4]) was 9.30.
In the case of `CC(C(=O)NCc1ccc(C(F)(F)F)cc1N1CCCC1)c1ccc(NS(C)(=O)=O)c(Br)c1` (centres unmarked) [Example 69, 2-(3-bromo-4-(methylsulfonamido)phenyl)-N-(2-(pyrrolidin-1-yl)-4-(trifluoromethyl)benzyl)propanamide], the values for the pKi (in experiment [1] (setting [2]); on vanilloid receptor (VR1) (setting [3])) were 8.62 and 8.77, respectively.
For the compound `CC(C(=O)NCc1ccc(C(F)(F)F)nc1N1CCCC1)c1ccc(NS(C)(=O)=O)c(Cl)c1` (centres unmarked) [Example 65, 2-(3-chloro-4-(methylsulfonamido)phenyl)-N-((2-(pyrrolidin-1-yl)-6-(trifluoromethyl)pyridin-3-yl)methyl)propanamide], the pKi in experiment [1] (setting [2]) is 7.44; on vanilloid receptor (VR1) (setting [3]), 8.38.
On to `CC1CCN(c2nc(-c3ccc(F)cc3)ccc2CNC(=O)C(C)c2ccc(NS(C)(=O)=O)c(F)c2)CC1` (centres unmarked) [Example 184, 2-(3-fluoro-4-methylsulfonamido-phenyl)-N-[6′-(4-fluoro-phenyl)-4-methyl-3,4,5,6-tetrahydro-2H-[1,2′]bipyridinyl-3′-ylmethyl]-propionamide], for which the pKi in experiment [1] (setting [4]) is 7.11.
For the compound `CCCCOc1nc(C(F)(F)F)ccc1CNC(=O)C(C)c1ccc(NS(C)(=O)=O)c(F)c1` (centres unmarked) [Example 19, N-((2-butoxy-6-(trifluoromethyl)pyridin-3-yl)methyl)-2-(3-fluoro-4-(methylsulfonamido)phenyl)propanamide], the pKi in experiment [1] (setting [2]) is 9.00.
Regarding `CC(C(=O)NCc1ccc(C(F)(F)F)cc1N1CCCCC1)c1ccc(NS(C)(=O)=O)c(Cl)c1` (centres unmarked) [Example 66, 2-(3-chloro-4-(methylsulfonamido)phenyl)-N-(2-(piperidin-1-yl)-4-(trifluoromethyl)benzyl)propanamide], the figures for the pKi (in experiment [1] (setting [2]); at vanilloid receptor (VR1) (setting [3])) were 8.43 and 8.54, respectively.
